Earlier results, collected in patent publication US20240182893A1, “INHIBITION OF FGR REDUCES FIBROSIS” (UNIVERSITY OF PITTSBURGH-OF THE COMMONWEALTH SYSTEM OF …, priority 2021, published 2024).

Tested on: fibrosis in the lung
Details: in vivo; cited from earlier work

| SMILES | progression of fibrosis in the lung |
| --- | --- |
| COC(=O)c1ccc2c(c1)NC(=O)/C2=C(\Nc1ccc(N(C)C(=O)CN2CCN(C)CC2)cc1)c1ccccc1 [nintedanib] | slow the progression of fibrosis |
| Cc1ccc(=O)n(-c2ccccc2)c1 [pirfenidone] | slow the progression of fibrosis |
